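GI50: concentration for 50% inhibition of growth. TGI: total growth inhibition.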
Columns and labels:
Assay in all cases: NCI anticancer screen, dose series, 384-well format
[1] = tested on: 786-0 renal
[2] = tested on: A498 renal
[3] = tested on: A549 NSCLC
[4] = tested on: ACHN renal
[5] = tested on: BT-549 breast
[6] = tested on: CAKI-1 renal
[7] = tested on: CCRF-CEM leukemia
[8] = tested on: COLO 205 colon
[9] = tested on: DU-145 prostate
[10] = tested on: EKVX NSCLC
[11] = tested on: HCC-2998 colon
[12] = tested on: HCT-116 colon
[13] = tested on: HCT-15 colon
[14] = tested on: HL-60(TB) leukemia
[15] = tested on: HOP-62 NSCLC
[16] = tested on: HOP-92 NSCLC
[17] = tested on: HS 578T breast
[18] = tested on: HT29 colon
[19] = tested on: IGROV1 ovarian
[20] = tested on: K-562 leukemia
[21] = tested on: KM12 colon
[22] = tested on: LOX IMVI melanoma
[23] = tested on: M14 melanoma
[24] = tested on: MALME-3M melanoma
[25] = tested on: MCF7 breast
[26] = tested on: MDA-MB-231 breast
[27] = tested on: MDA-MB-435 melanoma
[28] = tested on: MDA-MB-468 breast
[29] = tested on: MOLT-4 leukemia
[30] = tested on: NCI-H226 lung
[31] = tested on: NCI-H23 lung
[32] = tested on: NCI-H322M lung
[33] = tested on: NCI-H460 NSCLC
[34] = tested on: NCI-H522 lung
[35] = tested on: NCI/ADR-RES ovarian
[36] = tested on: OVCAR-3 ovarian
[37] = tested on: OVCAR-4 ovarian
[38] = tested on: OVCAR-5 ovarian
[39] = tested on: OVCAR-8 ovarian
[40] = tested on: PC-3 prostate
[41] = tested on: RPMI-8226 leukemia
[42] = tested on: SF-268 CNS
[43] = tested on: SF-295 CNS
[44] = tested on: SF-539 CNS
[45] = tested on: SK-MEL-2 melanoma
[46] = tested on: SK-MEL-28 melanoma
[47] = tested on: SK-MEL-5 melanoma
[48] = tested on: SK-OV-3 ovarian
[49] = tested on: SN12C renal
[50] = tested on: SNB-19 CNS
[51] = tested on: SNB-75 CNS
[52] = tested on: SR leukemia
[53] = tested on: SW-620 colon
[54] = tested on: T-47D breast
[55] = tested on: TK-10 renal
[56] = tested on: U251 glioblastoma
[57] = tested on: UACC-257 melanoma
[58] = tested on: UACC-62 melanoma
[59] = tested on: UO-31 renal

With `CCC1=C[C@@H]2CN(C1)Cc1c([nH]c3ccccc13)[C@@](C(=O)OC)(c1cc3c(cc1OC)N(C)[C@H]1[C@@](O)(C(=O)OC)[C@H](OC(C)=O)[C@]4(CC)C=CCN5CC[C@]31[C@@H]54)C2` the GI50 [1] was 0.367 µM, the TGI [1] was 6.05 µM and the GI50 [2] was 0.203 µM. For the same molecule, the TGI [2] was 2.39 µM, the GI50 [3] was 0.27 µM and the TGI [3] was 11.8 µM. It also gave a GI50 [4] of 2.77 µM, a TGI [4] of 24.5 µM and a GI50 [5] of 0.0643 µM. It also gave a TGI [5] of 0.71 µM, a GI50 [6] of 0.651 µM and a TGI [6] of 8.98 µM. For the same molecule, the GI50 [7] was 0.0535 µM, the TGI [7] was 0.104 µM and the GI50 [8] was 0.0516 µM. For the same molecule, the TGI [8] was 0.506 µM, the GI50 [9] was 0.139 µM and the TGI [9] was 1.74 µM. It also gave a GI50 [10] of 0.65 µM, a TGI [10] of 16.2 µM and a GI50 [11] of 0.0667 µM. For the same molecule, the TGI [11] was 0.286 µM, the GI50 [12] was 0.0739 µM and the TGI [12] was 3.92 µM. It also gave a GI50 [13] of 0.971 µM, a TGI [13] of 8.15 µM and a GI50 [14] of 0.0201 µM. For the same molecule, the TGI [14] was 0.0378 µM, the GI50 [15] was 0.212 µM and the TGI [15] was 12.6 µM. For the same molecule, the GI50 [16] was 0.993 µM, the TGI [16] was 11.9 µM and the GI50 [17] was 0.0633 µM. It also gave a TGI [17] of 0.174 µM, a GI50 [18] of 0.0585 µM and a TGI [18] of 1.1 µM. It also gave a GI50 [19] of 0.652 µM, a TGI [19] greater than 32.7 µM and a GI50 [20] of 0.0421 µM. It also gave a TGI [20] of 0.174 µM, a GI50 [21] of 0.0508 µM and a TGI [21] of 4.3 µM. It also gave a GI50 [22] of 0.171 µM, a TGI [22] of 9.7 µM and a GI50 [23] of 0.214 µM. The TGI [23] was 13.4 µM, the GI50 [24] was 0.12 µM and the TGI [24] was 18.7 µM. For the same molecule, the GI50 [25] was 0.0651 µM, the TGI [25] was 4.76 µM and the GI50 [26] was 0.314 µM. For the same molecule, the TGI [26] was 14.2 µM, the GI50 [27] was 0.0155 µM and the TGI [27] was 0.0472 µM. It also gave a GI50 [28] of 0.0174 µM, a TGI [28] of 0.0355 µM and a GI50 [29] of 0.0202 µM. For the same molecule, the TGI [29] was 0.0366 µM, the GI50 [30] was 0.681 µM and the TGI [30] was 18.6 µM. It also gave a GI50 [31] of 0.251 µM, a TGI [31] of 0.881 µM and a GI50 [32] of 0.645 µM. The TGI [32] was 17.8 µM, the GI50 [33] was 0.0694 µM and the TGI [33] was 0.22 µM. For the same molecule, the GI50 [34] was 0.0209 µM, the TGI [34] was 0.0462 µM and the GI50 [35] was 24.8 µM. It also gave a TGI [35] greater than 64.3 µM, a GI50 [36] of 0.0343 µM and a TGI [36] of 0.171 µM. It also gave a GI50 [37] of 2.67 µM, a TGI [37] greater than 62.6 µM and a GI50 [38] of 0.638 µM. The TGI [38] was 19.7 µM, the GI50 [39] was 0.237 µM and the TGI [39] was 0.768 µM. It also gave a GI50 [40] of 0.21 µM, a TGI [40] of 12.6 µM and a GI50 [41] of 0.0336 µM. For the same molecule, the TGI [41] was 0.0834 µM, the GI50 [42] was 0.228 µM and the TGI [42] was 12.9 µM. The GI50 [43] was 0.0951 µM, the TGI [43] was 0.239 µM and the GI50 [44] was 0.0765 µM. For the same molecule, the TGI [44] was 0.243 µM, the GI50 [45] was 0.037 µM and the TGI [45] was 0.216 µM. For the same molecule, the GI50 [46] was 1.52 µM, the TGI [46] was 16.1 µM and the GI50 [47] was 0.022 µM. For the same molecule, the TGI [47] was 0.0494 µM, the GI50 [48] was 0.113 µM and the TGI [48] was 5.85 µM. For the same molecule, the GI50 [49] was 0.21 µM, the TGI [49] was 20.1 µM and the GI50 [50] was 0.18 µM. It also gave a TGI [50] of 4.7 µM, a GI50 [51] of 0.0488 µM and a TGI [51] of 0.126 µM. For the same molecule, the GI50 [52] was less than 0.01 µM, the TGI [52] was 0.0161 µM and the GI50 [53] was 0.155 µM. The TGI [53] was 15.1 µM, the GI50 [54] was 10.6 µM and the TGI [54] was 25.5 µM. For the same molecule, the GI50 [55] was 1.11 µM, the TGI [55] was 18.6 µM and the GI50 [56] was 0.0754 µM. The TGI [56] was 1.81 µM, the GI50 [57] was 1.26 µM and the TGI [57] was 15.4 µM. It also gave a GI50 [58] of 0.0359 µM, a TGI [58] of 0.901 µM and a GI50 [59] of 4.51 µM. For the same molecule, the TGI [59] was 17.9 µM.
